Measurements from patent US11180474B2 (BRISTOL-MYERS SQUIBB COMPANY, priority 2016, dated 2021).
Counter-ions that a name gives are not always drawn.

What was measured:
human TLR8 = target: T1, human TLR8 (Homo sapiens, UniProt Q9NR97); assay: TLR8 inhibition reporter assay (HEK-Blue cells, SEAP reporter, R848 stimulation); format: cell-based; settings: HEK-Blue cells overexpressing human TLR8, R848 15.9 μM
T1 construct: host or cells: HEK-Blue cells
T1 sequence (Q9NR97 27-1041): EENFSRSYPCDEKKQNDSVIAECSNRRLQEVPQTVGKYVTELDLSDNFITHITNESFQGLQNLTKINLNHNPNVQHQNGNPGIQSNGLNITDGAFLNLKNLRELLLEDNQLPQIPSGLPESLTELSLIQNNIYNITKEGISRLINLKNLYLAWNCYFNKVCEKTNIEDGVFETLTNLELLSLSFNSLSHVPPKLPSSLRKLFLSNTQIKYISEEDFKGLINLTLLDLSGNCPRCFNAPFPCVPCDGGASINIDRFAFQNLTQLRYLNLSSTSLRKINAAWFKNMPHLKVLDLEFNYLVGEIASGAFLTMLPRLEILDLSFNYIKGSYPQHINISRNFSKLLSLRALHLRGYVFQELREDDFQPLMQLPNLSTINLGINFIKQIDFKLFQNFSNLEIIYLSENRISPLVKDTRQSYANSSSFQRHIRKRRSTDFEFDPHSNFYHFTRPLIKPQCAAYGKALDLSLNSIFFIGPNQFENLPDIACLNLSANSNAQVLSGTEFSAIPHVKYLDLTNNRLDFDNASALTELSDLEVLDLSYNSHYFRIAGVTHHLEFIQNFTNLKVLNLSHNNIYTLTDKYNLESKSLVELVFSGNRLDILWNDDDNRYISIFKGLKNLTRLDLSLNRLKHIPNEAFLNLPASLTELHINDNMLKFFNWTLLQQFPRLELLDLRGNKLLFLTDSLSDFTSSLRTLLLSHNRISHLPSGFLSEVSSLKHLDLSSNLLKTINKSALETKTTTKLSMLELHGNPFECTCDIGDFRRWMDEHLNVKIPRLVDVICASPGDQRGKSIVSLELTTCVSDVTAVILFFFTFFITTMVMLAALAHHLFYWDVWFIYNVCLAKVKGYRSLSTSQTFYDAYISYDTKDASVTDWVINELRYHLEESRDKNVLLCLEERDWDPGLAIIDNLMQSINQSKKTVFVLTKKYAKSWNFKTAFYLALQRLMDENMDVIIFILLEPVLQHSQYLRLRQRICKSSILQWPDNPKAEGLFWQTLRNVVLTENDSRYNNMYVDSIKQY
In short: (§1)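 Cells (15000/well for TLR7, 20,000 for TLR8) were treated with compounds over 0.05 nM-50 μM final. After 22 h at 37° C, 5% CO2, SEAP was measured with HEK-Blue Detection reagent; percent inhibition was taken as reduction of agonist-plus-DMSO signal relative to a known inhibitor.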

human TLR7 = target: T2, human TLR7 (Homo sapiens, UniProt Q9NYK1); assay: TLR7 inhibition reporter assay (HEK-Blue cells, SEAP reporter, gardiquimod stimulation); format: cell-based; settings: HEK-Blue cells overexpressing human TLR7, gardiquimod 7.5 μM
T2 construct: host or cells: HEK-Blue cells
T2 sequence (Q9NYK1 27-1049): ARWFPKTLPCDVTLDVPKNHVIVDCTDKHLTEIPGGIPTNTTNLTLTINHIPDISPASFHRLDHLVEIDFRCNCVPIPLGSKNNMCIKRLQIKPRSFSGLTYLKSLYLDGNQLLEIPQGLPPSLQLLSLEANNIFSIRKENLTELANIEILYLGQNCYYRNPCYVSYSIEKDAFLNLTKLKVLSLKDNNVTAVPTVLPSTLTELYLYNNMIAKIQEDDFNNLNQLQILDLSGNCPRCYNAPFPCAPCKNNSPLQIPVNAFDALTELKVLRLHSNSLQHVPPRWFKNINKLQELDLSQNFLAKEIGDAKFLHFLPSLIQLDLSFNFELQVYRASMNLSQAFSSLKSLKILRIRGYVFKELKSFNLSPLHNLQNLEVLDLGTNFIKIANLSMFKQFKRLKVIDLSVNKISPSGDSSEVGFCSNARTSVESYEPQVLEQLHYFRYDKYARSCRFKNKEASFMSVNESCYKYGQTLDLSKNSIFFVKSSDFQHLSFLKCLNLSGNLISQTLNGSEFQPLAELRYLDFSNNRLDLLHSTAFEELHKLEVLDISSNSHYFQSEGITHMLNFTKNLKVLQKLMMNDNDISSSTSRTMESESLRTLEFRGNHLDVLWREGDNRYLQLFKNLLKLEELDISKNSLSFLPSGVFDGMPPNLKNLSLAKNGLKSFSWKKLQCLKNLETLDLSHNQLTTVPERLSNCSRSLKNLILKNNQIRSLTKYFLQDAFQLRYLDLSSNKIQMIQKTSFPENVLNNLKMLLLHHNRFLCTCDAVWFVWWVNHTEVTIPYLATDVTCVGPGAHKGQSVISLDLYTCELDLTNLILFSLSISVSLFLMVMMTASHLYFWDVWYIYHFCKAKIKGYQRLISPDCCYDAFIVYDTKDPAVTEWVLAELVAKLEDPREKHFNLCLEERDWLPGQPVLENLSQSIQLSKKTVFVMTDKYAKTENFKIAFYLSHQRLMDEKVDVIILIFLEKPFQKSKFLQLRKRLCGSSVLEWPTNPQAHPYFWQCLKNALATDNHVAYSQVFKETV
In short: as §1

Structure (SMILES)	IC50 (human TLR8)	IC50 (human TLR7)
COc1ccc(-c2[nH]c3ccc(C4CCN(C5CCN(CC(C)C)CC5)CC4)cc3c2C(C)C)cc1OC [Example 199, 2-(3,4-dimethoxyphenyl)-5-(1′-isobutyl-[1,4′-bipiperidin]-4-yl)-3-isopropyl-1H-indole]	19 nM	120 nM
COc1ccc(-c2[nH]c3ccc(C4CCN(C5CCN(C)CC5)CC4)cc3c2C(C)C)cc1OC [Example 200, 2-(3,4-dimethoxyphenyl)-3-isopropyl-5-(1′-methyl-[1,4′-bipiperidin]-4-yl)-1H-indole]	27 nM	101 nM
COc1ccc(-c2[nH]c3ccc(C4CCN(C5CCN(C(C)C)CC5)CC4)cc3c2C(C)C)cc1OC [Example 201, 2-(3,4-dimethoxyphenyl)-3-isopropyl-5-(1′-isopropyl-[1,4′-bipiperidin]-4-yl)-1H-indole]	17 nM	119 nM
COc1ccc(-c2[nH]c3ccc(C4CCN(C5CCN(C6CCCC6)CC5)CC4)cc3c2C(C)C)cc1OC [Example 202, 5-(1′-cyclopentyl-[1,4′-bipiperidin]-4-yl)-2-(3,4-dimethoxyphenyl)-3-isopropyl-1H-indole]	13 nM	155 nM
CCN(CC)C(=O)CCN(C)CC(=O)N1CCC(c2ccc3[nH]c(-c4ccc(OC)c(OC)c4)c(C(C)C)c3c2)CC1 [Example 204, 3-((2-(4-(2-(3,4-dimethoxyphenyl)-3-isopropyl-1H-indol-5-yl)piperidin-1-yl)-2-oxoethyl)(methyl)amino)-N,N-diethylpropanamide]	112 nM	160 nM
COc1ccc(-c2[nH]c3cc(C)c(C4CCNCC4)cc3c2C(C)C)cc1OC [Example 205, 2-(3,4-dimethoxyphenyl)-3-isopropyl-6-methyl-5-(piperidin-4-yl)-1H-indole]	6870 nM	2370 nM
COc1ccc(-c2[nH]c3cc(C)c(C4CCN(C5CCN(C(C)C)CC5)CC4)cc3c2C(C)C)cc1OC [Example 206, 2-(3,4-dimethoxyphenyl)-3-isopropyl-5-(1′-isopropyl-[1,4′-bipiperidin]-4-yl)-6-methyl-1H-indole di trifluoroacetic acid]	14500 nM	3570 nM
CNCCN1CCC(c2cc3c(C(C)C)c(-c4ccc(OC)c(OC)c4)[nH]c3cc2C)CC1 [Example 207, 2-(4-(2-(3,4-dimethoxyphenyl)-3-isopropyl-6-methyl-1H-indol-5-yl)piperidin-1-yl)-N-methylethan-1-amine]	46900 nM	7300 nM
CNCCN1CCC(c2cc3c(C(C)C)c(-c4ccc(OC)c(OC)c4)[nH]c3cc2F)CC1 [Example 208, 2-(4-(2-(3,4-dimethoxyphenyl)-6-fluoro-3-isopropyl-1H-indol-5-yl)piperidin-1-yl)-N-methylethan-1-amine]	35 nM	9 nM
COc1ccc(-c2[nH]c3ccc(C4CCN(C(=O)CN5CCC(N6CCCCC6)CC5)CC4)cc3c2C(C)C)cc1OC [Example 211, 2-([1,4′-bipiperidin]-1′-yl)-1-(4-(2-(3,4-dimethoxyphenyl)-3-isopropyl-1H-indol-5-yl)piperidin-1-yl)ethan-1-one]	25 nM	14 nM
COc1ccc(-c2[nH]c3ccc(C4CCN(C(=O)CNC56CC7CC(CC(C7)C5)C6)CC4)cc3c2C(C)C)cc1OC [Example 217, 2-(((3s,5s,7s)-adamantan-1-yl)amino)-1-(4-(2-(3,4-dimethoxyphenyl)-3-isopropyl-1H-indol-5-yl)piperidin-1-yl)ethan-1-one]	379 nM	409 nM
COc1ccc(-c2[nH]c3ccc(C4CCN(C(=O)CNC56CC7CC(CC(O)(C7)C5)C6)CC4)cc3c2C(C)C)cc1OC [Example 218, 1-(4-(2-(3,4-dimethoxyphenyl)-3-isopropyl-1H-indol-5-yl)piperidin-1-yl)-2-(((1r,3s,5R,7S)-3-hydroxyadamantan-1-yl)amino)ethan-1-one]	54 nM	44 nM

Further lines, results first:

IC50 (human TLR8)	IC50 (human TLR7)	Structure (SMILES)
286 nM	128 nM	CCN(CC)C(=O)CN(C)CC(=O)N1CCC(c2ccc3[nH]c(-c4ccc(OC)c(OC)c4)c(C(C)C)c3c2)CC1 [Example 203, 2-((2-(4-(2-(3,4-dimethoxyphenyl)-3-isopropyl-1H-indol-5-yl)piperidin-1-yl)-2-oxoethyl)(methyl)amino)-N,N-diethylacetamide, TFA]
24 nM	12 nM	COc1ccc(-c2[nH]c3ccc(C4CCN(C(=O)CN(C)C)CC4)cc3c2C(C)C)cc1OC [Example 209, 1-(4-(2-(3,4-dimethoxyphenyl)-3-isopropyl-1H-indol-5-yl)piperidin-1-yl)-2-(dimethylamino)ethan-1-one]
25 nM	13 nM	COc1ccc(-c2[nH]c3ccc(C4CCN(C(=O)CNCC(C)O)CC4)cc3c2C(C)C)cc1OC (stereo not shown) [Example 210, 1-(4-(2-(3,4-dimethoxyphenyl)-3-isopropyl-1H-indol-5-yl)piperidin-1-yl)-2-((2-hydroxypropyl)amino)ethan-1-one]
20 nM	13 nM	COc1ccc(-c2[nH]c3ccc(C4CCN(C(=O)CNCCO)CC4)cc3c2C(C)C)cc1OC [Example 212, 1-(4-(2-(3,4-dimethoxyphenyl)-3-isopropyl-1H-indol-5-yl)piperidin-1-yl)-2-((2-hydroxyethyl)amino)ethan-1-one]
18 nM	31 nM	COc1ccc(-c2[nH]c3ccc(C4CCN(C(=O)CNC5(CO)CCCC5)CC4)cc3c2C(C)C)cc1OC [Example 213, 1-(4-(2-(3,4-dimethoxyphenyl)-3-isopropyl-1H-indol-5-yl)piperidin-1-yl)-2-((1-(hydroxymethyl)cyclopentyl)amino)ethan-1-one]
256 nM	21 nM	COc1ccc(-c2[nH]c3ccc(C4CCN(C(=O)CNCC#N)CC4)cc3c2C(C)C)cc1OC [Example 214, 2-((2-(4-(2-(3,4-dimethoxyphenyl)-3-isopropyl-1H-indol-5-yl)piperidin-1-yl)-2-oxoethyl)amino) acetonitrile]
163 nM	36 nM	COc1ccc(-c2[nH]c3ccc(C4CCN(C(=O)CNC5CCC(N(C)C)CC5)CC4)cc3c2C(C)C)cc1OC (stereo not shown) [Example 215, 1-(4-(2-(3,4-dimethoxyphenyl)-3-isopropyl-1H-indol-5-yl)piperidin-1-yl)-2-((4-(dimethylamino)cyclohexyl)amino)ethan-1-one]
39 nM	33 nM	COc1ccc(-c2[nH]c3ccc(C4CCN(C(=O)CNCC(C)(C)CO)CC4)cc3c2C(C)C)cc1OC [Example 219, 1-(4-(2-(3,4-dimethoxyphenyl)-3-isopropyl-1H-indol-5-yl)piperidin-1-yl)-2-((3-hydroxy-2,2-dimethylpropyl)amino)ethan-1-one]
